Results reported in BindingDB's records for doi:10.1021/jm300804e (National Institute of Allergy and Infectious Diseases, 2012).

Columns and labels:
[1] = Inhibition of Bacillus anthracis Protective antigen-mediated cytotoxicity in RAW264.7 cells compound co-treated for 5 hrs with antigen by MTT assay in presence of lethal factor
[2] = Inhibition of Bacillus anthracis Protective antigen-mediated cytotoxicity in HT1080 cells compound co-treated for 5 hrs with antigen measured after 48 hrs by MTT assay in presence of FP59
[3] = Inhibition of Bacillus anthracis Protective antigen-mediated cytotoxicity in RAW264.7 cells compound co-treated for 5 hrs with antigen measured after 48 hrs by MTT assay in presence of FP59
[4] = Inhibition of matrix metalloprotease activated Bacillus anthracis Protective antigen-mediated cytotoxicity in HT1080 cells compound co-treated for 5 hrs with antigen measured after 48 hrs by MTT assay in presence of FP59

Row | SMILES | EC50 [1] | EC50 [2] | EC50 [3] | EC50 [4]
1 | Oc1ccccc1/C=N/c1ccc(Cc2ccc(/N=C/c3ccccc3O)c(O)c2)cc1O | 3000 nM | 1000 nM | 1000 nM | 1000 nM
2 | NC(=O)c1ccccc1NC(=O)c1ccc(C(=O)Nc2ccccc2C(N)=O)cc1 | 3000 nM | 1000 nM | 1000 nM | 1000 nM
